Assay results taken from ChEMBL document CHEMBL1764964, “Extending SAR of bile acids as FXR ligands: discovery of 23-N-(carbocinnamyloxy)-3α,7α-dihydroxy-6α-ethyl-24-nor-5β-cholan-23-amine” (Bioorg Med Chem, 2011).
pEC50: −log10 of the molar value. Calls of active or inactive are those of the source. The calls are words filed in the database; no cut-off is given here.

Legend:
[1] = molecular target: T1, Bile acid receptor (Homo sapiens) (UniProt Q96RI1); assay: Agonist activity at human FXR expressed in HepG2 cells assessed as renilla luciferase activity at 20 uM by luciferase based transactivation assay; assay type: functional, cell-based
T1 sequence (whole entry): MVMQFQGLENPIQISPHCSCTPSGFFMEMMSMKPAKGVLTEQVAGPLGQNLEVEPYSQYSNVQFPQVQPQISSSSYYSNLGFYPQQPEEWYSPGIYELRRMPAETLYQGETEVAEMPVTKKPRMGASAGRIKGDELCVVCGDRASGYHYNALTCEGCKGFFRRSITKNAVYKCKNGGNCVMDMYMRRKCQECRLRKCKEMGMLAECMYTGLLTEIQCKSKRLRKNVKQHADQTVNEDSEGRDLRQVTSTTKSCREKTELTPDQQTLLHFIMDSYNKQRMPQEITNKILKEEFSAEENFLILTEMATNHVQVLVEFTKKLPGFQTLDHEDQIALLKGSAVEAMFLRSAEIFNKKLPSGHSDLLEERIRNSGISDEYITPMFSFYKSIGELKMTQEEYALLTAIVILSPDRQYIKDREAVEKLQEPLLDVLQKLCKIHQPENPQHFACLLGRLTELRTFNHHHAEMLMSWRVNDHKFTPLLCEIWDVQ

Bile acid receptor = molecular target: T2, Bile acid receptor (Homo sapiens, UniProt Q96RI1); assay: Agonist activity at human GST-fused FXR LBD assessed as coactivator interaction with receptor ligand binding domain by Alphascreen assay
T2 sequence (Q96RI1 whole entry): T1 sequence (whole entry)

[2] = molecular target: T1, Bile acid receptor (Homo sapiens); assay: Agonist activity at human GST-fused FXR LBD assessed as coactivator interaction with receptor ligand binding domain by Alphascreen assay relative to CDCA
[3] = molecular target: T3, G-protein coupled bile acid receptor 1 (Homo sapiens, UniProt Q8TDU6); assay: Agonist activity at human TGR5 receptor expressed in NCI-H716 cells assessed as intracellular cAMP level by TR-FRET assay; assay type: functional, cell-based
T3 sequence (Q8TDU6 whole entry): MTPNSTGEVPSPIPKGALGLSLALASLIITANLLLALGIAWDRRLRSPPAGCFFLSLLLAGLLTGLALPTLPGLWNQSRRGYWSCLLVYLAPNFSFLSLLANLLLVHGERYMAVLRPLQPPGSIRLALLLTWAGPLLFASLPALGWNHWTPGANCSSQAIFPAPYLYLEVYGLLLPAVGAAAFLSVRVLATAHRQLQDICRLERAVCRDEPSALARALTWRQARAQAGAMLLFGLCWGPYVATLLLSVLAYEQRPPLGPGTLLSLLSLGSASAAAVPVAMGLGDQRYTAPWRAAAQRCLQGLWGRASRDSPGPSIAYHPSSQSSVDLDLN

[4] = molecular target: T1, Bile acid receptor (Homo sapiens); assay: Agonist activity at human FXR expressed in HepG2 cells assessed as renilla luciferase activity at 1 uM by luciferase based transactivation assay; assay type: functional, cell-based

| Structure (SMILES) | Activity [1] | pEC50 (Bile acid receptor) | Efficacy [2] [%] | pEC50 [3] | Activity [4] |
| --- | --- | --- | --- | --- | --- |
| C[C@H](CCNC(=O)OC/C=C/c1ccccc1)C1CC[C@H]2[C@@H]3[C@H](O)CC4C[C@H](O)CC[C@]4(C)[C@H]3CC[C@]12C (stereo partly drawn) | Active | 6.05 | 55 | < 4.00 |  |
| CC[C@H]1[C@@H](O)[C@@H]2[C@H](CC[C@]3(C)[C@@H]([C@H](C)CCNC(=O)OC/C=C/c4ccccc4)CC[C@@H]23)[C@@]2(C)CC[C@@H](O)C[C@@H]12 |  | 6.82 | 290 | 4.26 | Active |
